According to PubChem BioAssay AID200 (DTP/NCI, 2004):
Values joined by “and” are separate entries in the source; they are usually repeats but may differ in a detail not shown here. Identical values can stand only once. Inconclusive results and toxic doses are left out.

System: B6C3F1 mice, B16 melanoma ip, median survival T/C
Test: NCI In Vivo Anticancer Drug Screen. Data for tumor model B16 Melanoma (intraperitoneal) in B6C3F1 mice
Conditions: endpoint: median survival time, higher = longer survival
In short: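 Readout: survival or tumor size in treated mice relative to vehicle controls (T/C). Model uses transplantable tumors grown in mice.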

[1] = dose: 25.0 mg/kg/injection, schedule: Q01DX009 (ip), vehicle: saline
[2] = dose: 50.0 mg/kg/injection, schedule: Q01DX009 (ip), vehicle: saline
[3] = dose: 100.0 mg/kg/injection, schedule: Q01DX009 (ip), vehicle: saline
[4] = dose: 12.5 mg/kg/injection, schedule: Q01DX009 (ip), vehicle: Klucel (hydroxypropylcellulose) (HPC)
[5] = dose: 25.0 mg/kg/injection, schedule: Q01DX009 (ip), vehicle: Klucel (hydroxypropylcellulose) (HPC)
[6] = dose: 3.12 mg/kg/injection, schedule: Q01DX009 (ip), vehicle: Klucel (hydroxypropylcellulose) (HPC)
[7] = dose: 6.25 mg/kg/injection, schedule: Q01DX009 (ip), vehicle: Klucel (hydroxypropylcellulose) (HPC)
[8] = dose: 12.0 mg/kg/injection, schedule: Q01DX009 (ip), vehicle: saline with Tween-80
[9] = dose: 25.0 mg/kg/injection, schedule: Q01DX009 (ip), vehicle: saline with Tween-80
[10] = dose: 50.0 mg/kg/injection, schedule: Q01DX009 (ip), vehicle: saline with Tween-80
[11] = dose: 100.0 mg/kg/injection, schedule: Q01DX009 (ip), vehicle: saline with Tween-80
[12] = dose: 200.0 mg/kg/injection, schedule: Q01DX009 (ip), vehicle: saline with Tween-80

C=C1COC(O)(C2OCOC(C3CC(=O)NC(=O)C3)C2O)C1C (stereo not drawn)
T/C (dose: 4.0 micrograms/kg/injection, schedule: Q01DX009 (ip), vehicle: water): 94 % of control
T/C (dose: 8.0 micrograms/kg/injection, schedule: Q01DX009 (ip), vehicle: water): 111 % of control and 113 % of control
T/C (dose: 16.0 micrograms/kg/injection, schedule: Q01DX009 (ip), vehicle: water): 109 % of control
T/C (dose: 32.0 micrograms/kg/injection, schedule: Q01DX009 (ip), vehicle: water): 115 % of control

CN(CN1C(=O)CCC1=O)CN1C(=O)CCC1=O
T/C [1]: 98 % of control
T/C [2]: 101 % of control
T/C [3]: 105 % of control
T/C (dose: 200.0 mg/kg/injection, schedule: Q01DX009 (ip), vehicle: saline): 115 % of control

CC(=O)NC(CCc1ccc(Cl)c(Cl)c1)c1cccc(O)c(=O)c1 (stereo not drawn)
T/C (dose: 3.0 mg/kg/injection, schedule: Q01DX009 (ip), vehicle: Klucel (hydroxypropylcellulose) (HPC)): 93 % of control
T/C (dose: 6.0 mg/kg/injection, schedule: Q01DX009 (ip), vehicle: Klucel (hydroxypropylcellulose) (HPC)): 101 % of control
T/C [4]: 101 % of control
T/C [5]: 105 % of control
T/C (dose: 50.0 mg/kg/injection, schedule: Q01DX009 (ip), vehicle: Klucel (hydroxypropylcellulose) (HPC)): 105 % of control

O=NN(CCF)C(=O)NC1CCCCC1
T/C [6]: 116 % of control
T/C [7]: 166 % of control
T/C (dose: 12.0 mg/kg/injection, schedule: Q01DX001 (ip), vehicle: Klucel (hydroxypropylcellulose) (HPC)): 121 % of control
T/C [4]: 333 % of control
T/C (dose: 25.0 mg/kg/injection, schedule: Q01DX001 (ip), vehicle: Klucel (hydroxypropylcellulose) (HPC)): 162 % of control
T/C (dose: 100.0 mg/kg/injection, schedule: Q01DX001 (ip), vehicle: Klucel (hydroxypropylcellulose) (HPC)): 216 % of control

CC12CCC3C(CCC4CC(OC(=O)Cc5ccc(N(CCCl)CCCl)cc5)CCC43C)C1CCC(=O)N2 (stereo not drawn)
T/C (dose: 1.5 mg/kg/injection, schedule: Q01DX009 (ip), vehicle: saline with Tween-80): 113 % of control
T/C (dose: 3.0 mg/kg/injection, schedule: Q01DX009 (ip), vehicle: saline with Tween-80): 106 % of control
T/C [8]: 167 % of control

[Cl][Mn][Cl]
T/C (dose: 2.0 mg/kg/injection, schedule: Q01DX009 (ip), vehicle: saline): 115 % of control and 107 % of control
T/C (dose: 4.0 mg/kg/injection, schedule: Q01DX009 (ip), vehicle: saline): 96 % of control and 103 % of control and 106 % of control
T/C (dose: 8.0 mg/kg/injection, schedule: Q01DX009 (ip), vehicle: saline): 112 % of control and 98 % of control
T/C (dose: 16.0 mg/kg/injection, schedule: Q01DX009 (ip), vehicle: saline): 104 % of control
T/C (dose: 32.0 mg/kg/injection, schedule: Q01DX009 (ip), vehicle: saline): 155 % of control
T/C (dose: 64.0 mg/kg/injection, schedule: Q01DX009 (ip), vehicle: saline): 152 % of control and 160 % of control

O=CC(O)C(O)C(O)C(O)C(=O)O.[NH-]C1CCCCC1[NH-].[Pt+2] (stereo not drawn)
T/C (dose: 0.19 mg/kg/injection, schedule: Q01DX009 (ip), vehicle: saline): 108 % of control
T/C (dose: 1.5 mg/kg/injection, schedule: Q01DX009 (ip), vehicle: saline): 177 % of control
T/C (dose: 3.0 mg/kg/injection, schedule: Q01DX009 (ip), vehicle: saline): 187 % of control

NC(=O)Oc1cc(OC(N)=O)cc(N(CCCl)CCCl)c1
T/C [6]: 115 % of control
T/C [7]: 107 % of control
T/C (dose: 6.25 mg/kg/injection, schedule: Q01DX009 (ip), vehicle: saline): 91 % of control
T/C (dose: 12.5 mg/kg/injection, schedule: Q01DX009 (ip), vehicle: saline): 96 % of control
T/C [5]: 170 % of control
T/C [1]: 104 % of control
T/C [2]: 104 % of control
T/C [3]: 102 % of control

CCOC(=O)c1[nH]c2cccc3c2c1CC(Br)C3=O (stereo not drawn)
T/C [8]: 98 % of control
T/C [9]: 93 % of control
T/C [10]: 100 % of control

Nc1nc(=S)c2ncn(C3OC(COC(=O)c4ccccc4)C(OC(=O)c4ccccc4)C3OC(=O)c3ccccc3)c2[nH]1 (stereo not drawn)
T/C (dose: 6.25 mg/kg/injection, schedule: Q01DX009 (ip), vehicle: saline with Tween-80): 112 % of control
T/C (dose: 12.5 mg/kg/injection, schedule: Q01DX009 (ip), vehicle: saline with Tween-80): 117 % of control
T/C [9]: 111 % of control
T/C [10]: 97 % of control

NC1=NC(O)C=C1 (stereo not drawn)
T/C (dose: 3.12 mg/kg/injection, schedule: Q01DX009 (ip), vehicle: saline + alcohol): 108 % of control
T/C (dose: 6.25 mg/kg/injection, schedule: Q01DX009 (ip), vehicle: saline + alcohol): 108 % of control
T/C (dose: 12.5 mg/kg/injection, schedule: Q01DX009 (ip), vehicle: saline + alcohol): 100 % of control
T/C (dose: 25.0 mg/kg/injection, schedule: Q01DX009 (ip), vehicle: saline + alcohol): 104 % of control

CC(C)(C)OC(=O)NC(CO)C(=O)O (stereo not drawn)
T/C [10]: 95 % of control
T/C [11]: 95 % of control
T/C [12]: 90 % of control

CC1=C[S+](c2ccccc2)c2cccc3cc4ccccc4c1c23 (stereo not drawn)
T/C (dose: 0.06 mg/kg/injection, schedule: Q01DX009 (ip), vehicle: saline with Tween-80): 106 % of control
T/C (dose: 0.12 mg/kg/injection, schedule: Q01DX009 (ip), vehicle: saline with Tween-80): 103 % of control
T/C (dose: 0.25 mg/kg/injection, schedule: Q01DX009 (ip), vehicle: saline with Tween-80): 115 % of control
T/C (dose: 0.5 mg/kg/injection, schedule: Q01DX009 (ip), vehicle: saline with Tween-80): 100 % of control
T/C (dose: 1.0 mg/kg/injection, schedule: Q01DX009 (ip), vehicle: saline with Tween-80): 111 % of control
T/C (dose: 2.0 mg/kg/injection, schedule: Q01DX009 (ip), vehicle: saline with Tween-80): 112 % of control and 106 % of control

CC(C)NC(=O)OCc1c(COC(=O)NC(C)C)c(-c2ccc(Cl)c(Cl)c2)n2c1C[C@@H](O)C2
T/C (dose: 5.0 mg/kg/injection, schedule: Q01DX009 (ip), vehicle: water): 160 % of control
T/C (dose: 10.0 mg/kg/injection, schedule: Q01DX009 (ip), vehicle: water): 196 % of control
T/C (dose: 20.0 mg/kg/injection, schedule: Q01DX009 (ip), vehicle: Klucel (hydroxypropylcellulose) (HPC)): 196 % of control
T/C (dose: 20.0 mg/kg/injection, schedule: Q01DX009 (ip), vehicle: water): 289 % of control
T/C (dose: 40.0 mg/kg/injection, schedule: Q01DX009 (ip), vehicle: Klucel (hydroxypropylcellulose) (HPC)): 223 % of control
T/C (dose: 40.0 mg/kg/injection, schedule: Q01DX009 (ip), vehicle: water): 191 % of control
T/C (dose: 80.0 mg/kg/injection, schedule: Q01DX009 (ip), vehicle: Klucel (hydroxypropylcellulose) (HPC)): 101 % of control

CNC(=O)Oc1ccc[nH]c1=O
T/C (dose: 16.0 mg/kg/injection, schedule: Q01DX009 (ip), vehicle: saline with Tween-80): 101 % of control
T/C (dose: 32.0 mg/kg/injection, schedule: Q01DX009 (ip), vehicle: saline with Tween-80): 100 % of control
T/C (dose: 64.0 mg/kg/injection, schedule: Q01DX009 (ip), vehicle: saline with Tween-80): 101 % of control
T/C (dose: 128.0 mg/kg/injection, schedule: Q01DX009 (ip), vehicle: saline with Tween-80): 100 % of control
T/C (dose: 256.0 mg/kg/injection, schedule: Q01DX009 (ip), vehicle: saline with Tween-80): 95 % of control

COc1ccc(C(C)c2cc3c(cc2OC)OCO3)cc1 (stereo not drawn)
T/C [9]: 99 % of control
T/C [10]: 99 % of control
T/C [11]: 100 % of control
T/C [12]: 104 % of control

CNC(=O)/C=C/C1=CN2C(=O)c3ccc(C)c(O)c3NC(OC)C2C1 (stereo not drawn)
T/C (dose: 0.01 mg/kg/injection, schedule: Q01DX009 (ip), vehicle: saline): 109 % of control and 106 % of control
T/C (dose: 0.02 mg/kg/injection, schedule: Q01DX009 (ip), vehicle: saline): 109 % of control
T/C (dose: 0.03 mg/kg/injection, schedule: Q01DX009 (ip), vehicle: saline): 115 % of control
T/C (dose: 0.05 mg/kg/injection, schedule: Q01DX009 (ip), vehicle: saline): 113 % of control and 116 % of control
T/C (dose: 0.05 mg/kg/injection, schedule: Q01DX009 (ip), vehicle: suspension in saline): 98 % of control
T/C (dose: 0.1 mg/kg/injection, schedule: Q01DX009 (ip), vehicle: saline): 117 % of control and 98 % of control
T/C (dose: 0.1 mg/kg/injection, schedule: Q01DX009 (ip), vehicle: suspension in saline): 97 % of control
T/C (dose: 0.2 mg/kg/injection, schedule: Q01DX009 (ip), vehicle: saline): 119 % of control
